Reference: ChEMBL document CHEMBL1201862, “PubChem BioAssay data set” (2004)
Active and inactive are the calls of the source.

Legend:
[1] = test system: Streptococcus sp. 'group A'; assay: Streptococcus pyogenes SK(-)GAS viability under kanamycin – luminescence, BacTiterGlo, confirmation, counter-screen for streptokinase expression inhibitor project, dose response (AID 1900); format: functional, organism-based
[2] = test system: Streptococcus; assay: GAS UMAA2166 growth inhibition – luminescence, BacTiterGlo, counter-screen for streptokinase expression inhibitor project, dose response (AID 1915); format: functional, organism-based;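 also: potency for reduction of bacterial viability or growth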
[3] = biological target: T1, Probable nicotinate-nucleotide adenylyltransferase (Staphylococcus aureus (strain N315), UniProt P65502); format: functional, Staphylococcus aureus subsp. aureus N315;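 as to IC50 Mean: confirmatory dose-response retesting of NadD inhibitor hits first found in an ultra-high-throughput screen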
T1 sequence (P65502 whole entry): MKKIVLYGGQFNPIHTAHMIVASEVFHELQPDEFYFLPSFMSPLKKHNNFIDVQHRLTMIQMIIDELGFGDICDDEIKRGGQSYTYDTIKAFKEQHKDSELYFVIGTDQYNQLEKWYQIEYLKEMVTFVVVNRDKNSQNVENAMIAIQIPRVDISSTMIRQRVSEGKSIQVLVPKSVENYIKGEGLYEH

[4] = biological target: T1, Probable nicotinate-nucleotide adenylyltransferase; format: functional, Staphylococcus aureus subsp. aureus N315; conditions: read-out: IC50_Mean
[5] = biological target: NAD-dependent protein deacylase sirtuin-5, mitochondrial (Homo sapiens, UniProt Q9NXA8); assay: sirtuin-5 deacylation blockers, concentration series – biochemical, fluorescence imaging, cherry-pick, set 5, dose response (AID 720591);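 also: desuccinylation of succinyl peptide AMC substrate read as fluorescence after trypsin release; potency of inhibitors that lower fluorescence and may act on trypsin instead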
Sequence of NAD-dependent protein deacylase sirtuin-5, mitochondrial (Q9NXA8 whole entry): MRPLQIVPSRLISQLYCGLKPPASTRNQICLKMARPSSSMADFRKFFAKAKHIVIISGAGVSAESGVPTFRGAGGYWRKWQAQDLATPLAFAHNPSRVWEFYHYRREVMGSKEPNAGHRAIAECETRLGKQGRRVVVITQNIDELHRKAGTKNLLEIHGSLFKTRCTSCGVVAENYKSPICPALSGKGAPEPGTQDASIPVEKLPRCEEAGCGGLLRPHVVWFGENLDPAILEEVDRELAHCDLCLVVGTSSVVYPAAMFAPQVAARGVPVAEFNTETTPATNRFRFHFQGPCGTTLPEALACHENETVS

[6] = biological target: T2, Fructose-bisphosphate aldolase (Mycobacterium tuberculosis, UniProt P9WQA3); assay: Fluorescence-based biochemical high throughput dose response assay for inhibitors of the fructose-bisphosphate aldolase (FBA) of M. tuberculosis.; format: functional
T2 sequence (P9WQA3 whole entry): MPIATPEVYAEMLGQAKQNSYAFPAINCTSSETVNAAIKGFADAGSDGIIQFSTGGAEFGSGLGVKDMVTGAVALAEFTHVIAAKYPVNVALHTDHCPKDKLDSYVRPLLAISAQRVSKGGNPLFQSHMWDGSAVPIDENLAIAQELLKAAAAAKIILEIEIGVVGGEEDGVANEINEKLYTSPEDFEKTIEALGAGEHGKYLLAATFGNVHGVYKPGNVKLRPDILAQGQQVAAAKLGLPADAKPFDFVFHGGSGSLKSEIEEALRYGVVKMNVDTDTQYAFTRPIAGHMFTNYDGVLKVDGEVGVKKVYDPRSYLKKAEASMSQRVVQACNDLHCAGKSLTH

[7] = potency of ADAM10 substrate cleavage blockers – biochemical, QFRET, dose response (AID 743254);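 also: ADAM10 enzyme with the DM2 quenched FRET peptide as substrate; EDANS fluorescence gain as the protease cuts the substrate; inhibitor potency against ADAM10 proteolytic activity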
[8] = biological target: T3, Disintegrin and metalloproteinase domain-containing protein 17 (Homo sapiens, UniProt P78536); assay: inhibition of ADAM17 substrate cleavage – biochemical, quenched FRET substrate, counter-screen for ADAM10 exosite inhibitor project, dose response (AID 743253)
T3 sequence (P78536 whole entry, the tested form may be a part): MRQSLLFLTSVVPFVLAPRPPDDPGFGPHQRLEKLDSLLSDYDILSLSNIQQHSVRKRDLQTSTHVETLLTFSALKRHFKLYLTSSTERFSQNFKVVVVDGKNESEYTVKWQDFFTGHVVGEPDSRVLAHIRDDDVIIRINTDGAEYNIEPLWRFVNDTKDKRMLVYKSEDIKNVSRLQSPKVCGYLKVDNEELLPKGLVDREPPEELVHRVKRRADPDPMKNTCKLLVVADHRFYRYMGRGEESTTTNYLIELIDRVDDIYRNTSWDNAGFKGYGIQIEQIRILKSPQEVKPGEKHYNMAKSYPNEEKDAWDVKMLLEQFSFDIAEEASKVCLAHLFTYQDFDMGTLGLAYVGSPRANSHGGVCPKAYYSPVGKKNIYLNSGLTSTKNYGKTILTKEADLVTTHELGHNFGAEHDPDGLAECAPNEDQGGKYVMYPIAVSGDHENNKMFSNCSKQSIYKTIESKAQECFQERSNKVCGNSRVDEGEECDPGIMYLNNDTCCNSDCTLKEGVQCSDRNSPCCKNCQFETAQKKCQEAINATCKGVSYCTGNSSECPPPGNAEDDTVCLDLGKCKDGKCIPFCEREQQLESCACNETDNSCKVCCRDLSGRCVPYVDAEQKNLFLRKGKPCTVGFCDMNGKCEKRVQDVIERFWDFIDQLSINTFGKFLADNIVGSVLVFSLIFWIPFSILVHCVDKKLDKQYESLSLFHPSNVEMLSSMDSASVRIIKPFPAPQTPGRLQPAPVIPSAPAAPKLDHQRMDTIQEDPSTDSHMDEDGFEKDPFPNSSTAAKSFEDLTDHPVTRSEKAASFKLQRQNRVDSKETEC

[9] = biological target: T4, fMet-Leu-Phe receptor (Homo sapiens, UniProt P21462); assay: formyl peptide receptor binders – dose response (AID 519); format: functional
T4 sequence (P21462 whole entry): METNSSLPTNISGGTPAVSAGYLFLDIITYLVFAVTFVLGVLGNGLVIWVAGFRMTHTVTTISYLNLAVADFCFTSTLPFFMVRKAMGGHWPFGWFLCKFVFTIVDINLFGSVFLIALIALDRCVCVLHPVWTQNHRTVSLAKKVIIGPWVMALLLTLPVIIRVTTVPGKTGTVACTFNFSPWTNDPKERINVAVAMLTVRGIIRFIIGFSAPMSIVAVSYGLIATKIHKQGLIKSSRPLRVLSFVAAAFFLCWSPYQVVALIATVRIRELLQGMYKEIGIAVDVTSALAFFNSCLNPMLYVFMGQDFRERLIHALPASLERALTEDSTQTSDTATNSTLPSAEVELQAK

[10] = biological target: Beta-lactamase (Salmonella choleraesuis (strain SC-B67), UniProt Q5J463); assay: Epi-absorbance-based counterscreen for selective VIM-2 inhibitors: dose response biochemical high throughput screening assay to identify inhibitors of TEM-1 serine-beta-lactamase.
Sequence of Beta-lactamase (Salmonella choleraesuis (strain SC-B67), UniProt Q5J463) (Q5J463 whole entry): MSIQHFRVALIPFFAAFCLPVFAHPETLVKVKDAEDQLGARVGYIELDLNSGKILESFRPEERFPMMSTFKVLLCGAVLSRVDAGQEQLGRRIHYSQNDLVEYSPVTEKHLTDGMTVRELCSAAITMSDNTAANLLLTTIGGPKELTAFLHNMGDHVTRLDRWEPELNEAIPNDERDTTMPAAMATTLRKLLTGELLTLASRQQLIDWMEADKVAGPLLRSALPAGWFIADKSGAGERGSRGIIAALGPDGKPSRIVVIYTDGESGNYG

[11] = biological target: T5, Beta-lactamase (Pseudomonas aeruginosa, UniProt Q79MP6); assay: inhibition of IMP-1 beta-lactamase activity – biochemical, epi-absorbance, selectivity assay for VIM-2 inhibitor project, dose response (AID 1920)
T5 sequence (Q79MP6 whole entry): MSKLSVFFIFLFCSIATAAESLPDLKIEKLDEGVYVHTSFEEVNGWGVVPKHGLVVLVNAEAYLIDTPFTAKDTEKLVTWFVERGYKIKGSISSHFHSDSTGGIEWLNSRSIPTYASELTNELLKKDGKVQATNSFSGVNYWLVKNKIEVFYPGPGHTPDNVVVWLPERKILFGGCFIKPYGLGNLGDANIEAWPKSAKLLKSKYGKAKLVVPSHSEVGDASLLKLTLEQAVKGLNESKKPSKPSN

[12] = biological target: T6, Streptokinase A (Streptococcus pyogenes serotype M1, UniProt P10520); assay: viability-normalized secreted streptokinase activity reduction – plasminogen activation absorbance, OD405, dose response (AID 1914); format: functional, Streptococcus pyogenes M1 GAS;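 also: secreted streptokinase activity via plasminogen activation per viability signal from cell pellet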
T6 sequence (P10520 whole entry): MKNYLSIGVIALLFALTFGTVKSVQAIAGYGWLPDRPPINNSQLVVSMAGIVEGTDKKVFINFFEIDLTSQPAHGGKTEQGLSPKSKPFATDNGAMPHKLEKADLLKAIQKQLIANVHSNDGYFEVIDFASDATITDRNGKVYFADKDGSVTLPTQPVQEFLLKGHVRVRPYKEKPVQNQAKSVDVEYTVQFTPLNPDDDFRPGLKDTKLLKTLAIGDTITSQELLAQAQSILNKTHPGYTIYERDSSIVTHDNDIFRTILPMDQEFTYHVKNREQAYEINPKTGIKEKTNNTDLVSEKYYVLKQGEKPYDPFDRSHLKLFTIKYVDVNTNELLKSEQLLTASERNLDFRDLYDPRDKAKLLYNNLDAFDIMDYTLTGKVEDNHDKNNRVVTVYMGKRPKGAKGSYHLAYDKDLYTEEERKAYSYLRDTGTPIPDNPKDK

[13] = biological target: T5, Beta-lactamase; assay: […] counterscreen for selective VIM-2 inhibitors: dose response biochemical high throughput screening assay to identify inhibitors of IMP-1 metallo-beta-lactamase.
[14] = biological target: T3, Disintegrin and metalloproteinase domain-containing protein 17; assay: exosite inhibitors of ADAM17, dose response, biochemical (AID 743260)
[15] = inhibition of ADAM10 peptide cleavage – biochemical, FRET peptide substrate, recombinant human ADAM10, selectivity assay for ADAM17 exosite inhibitor project, dose response (AID 743259);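 also: ADAM10 enzyme cleaving a FRET peptide substrate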
[16] = Dd2 parasite growth inhibition in erythrocytes – SYBR Green, dry powder samples, set 9, dose response (AID 1159568); format: functional, cell-based
[17] = biological target: T7, RNA-binding protein pos-1 (Caenorhabditis elegans, UniProt G5EF15); assay: disruptors of C. elegans POS-1 RNA interaction – biochemical, fluorescence polarization, dose response (AID 1964);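 also: purified POS-1 fused to maltose binding protein made in E. coli; potency of compounds blocking POS-1 binding to fluorescent RNA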
T7 sequence (G5EF15 whole entry): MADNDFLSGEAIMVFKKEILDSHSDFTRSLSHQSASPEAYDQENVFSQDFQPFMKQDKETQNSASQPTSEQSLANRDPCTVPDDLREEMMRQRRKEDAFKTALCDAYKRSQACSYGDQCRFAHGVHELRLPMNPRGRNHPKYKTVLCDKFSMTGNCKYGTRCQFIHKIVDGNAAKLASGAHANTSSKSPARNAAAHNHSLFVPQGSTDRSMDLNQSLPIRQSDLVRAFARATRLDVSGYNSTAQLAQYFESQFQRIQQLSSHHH

[18] = biological target: T8, Zinc finger protein mex-5 (Caenorhabditis elegans, UniProt Q9XUB2); assay: potency of MEX-5 RNA-binding blockers – biochemical, C. elegans, fluorescence polarization, dose response (AID 1960)
T8 sequence (Q9XUB2 whole entry): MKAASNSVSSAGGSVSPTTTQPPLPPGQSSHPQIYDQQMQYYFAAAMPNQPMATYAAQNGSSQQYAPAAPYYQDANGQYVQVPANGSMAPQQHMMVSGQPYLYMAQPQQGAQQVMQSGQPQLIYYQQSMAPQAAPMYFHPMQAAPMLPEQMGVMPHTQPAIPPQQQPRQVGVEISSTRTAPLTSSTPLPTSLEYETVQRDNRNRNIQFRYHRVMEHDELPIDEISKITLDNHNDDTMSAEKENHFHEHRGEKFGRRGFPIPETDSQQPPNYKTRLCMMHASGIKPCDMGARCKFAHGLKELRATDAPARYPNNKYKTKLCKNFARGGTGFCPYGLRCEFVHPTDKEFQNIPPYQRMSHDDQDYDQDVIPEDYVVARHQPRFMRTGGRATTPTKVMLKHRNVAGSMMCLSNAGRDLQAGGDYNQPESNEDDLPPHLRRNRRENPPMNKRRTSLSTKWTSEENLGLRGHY

[19] = biological target: T9, Tyrosine-protein phosphatase non-receptor type 7 (Homo sapiens, UniProt P35236); assay: HePTP tyrosine phosphatase activity blockers – biochemical, absorbance, leukemia target, primary screen (AID 521); format: functional
T9 sequence (P35236 whole entry): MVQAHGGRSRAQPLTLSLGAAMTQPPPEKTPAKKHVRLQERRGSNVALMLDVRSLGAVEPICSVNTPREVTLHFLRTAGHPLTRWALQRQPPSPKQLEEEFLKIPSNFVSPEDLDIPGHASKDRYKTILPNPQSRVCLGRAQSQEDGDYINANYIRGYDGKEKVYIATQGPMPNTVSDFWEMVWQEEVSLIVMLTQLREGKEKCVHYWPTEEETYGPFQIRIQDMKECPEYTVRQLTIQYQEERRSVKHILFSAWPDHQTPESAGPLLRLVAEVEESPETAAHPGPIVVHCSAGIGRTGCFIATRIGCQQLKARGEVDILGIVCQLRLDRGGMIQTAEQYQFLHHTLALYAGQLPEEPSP

[20] = biological target: Heat shock protein HSP 90-alpha (Homo sapiens, UniProt P07900); format: functional, organism-based
[21] = test system: Vero; assay: viability of Vero cells under compound – cytotoxicity control for flavivirus capping enzyme inhibitors (AID 588742); format: functional; conditions: Chlorocebus sabaeus
[22] = biological target: T10, COUP transcription factor 2 (Homo sapiens, UniProt P24468); assay: Luminescence-based cell-based high throughput dose response assay to identify inhibitors of COUP-TFII (NR2F2).; format: functional;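 also: HEK293 cells transiently cotransfected with COUP-TFII expression vector and reporter; luciferase reporter luminescence driven by COUP-TFII from the pX2-168 reporter plasmid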
T10 sequence (P24468 whole entry): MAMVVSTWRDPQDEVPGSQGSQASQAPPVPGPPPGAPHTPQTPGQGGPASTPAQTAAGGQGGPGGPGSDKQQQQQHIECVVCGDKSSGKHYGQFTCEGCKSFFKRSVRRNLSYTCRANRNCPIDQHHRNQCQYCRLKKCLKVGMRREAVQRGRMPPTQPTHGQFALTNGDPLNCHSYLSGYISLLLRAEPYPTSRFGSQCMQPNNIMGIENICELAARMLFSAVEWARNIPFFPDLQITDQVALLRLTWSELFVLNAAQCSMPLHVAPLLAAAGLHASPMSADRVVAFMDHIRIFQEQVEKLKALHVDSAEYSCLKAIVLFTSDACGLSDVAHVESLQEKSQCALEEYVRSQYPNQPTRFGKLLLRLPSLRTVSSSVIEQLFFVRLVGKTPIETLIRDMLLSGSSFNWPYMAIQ

[23] = Luminescence Cell-Based Dose Retest to Confirm Inhibitors of Cancer Stem Cells. [Related pubchem assays (depositor defined):AID2717, AID2721]; format: functional; conditions: Homo sapiens

O=S(=O)(Nc1nccs1)c1ccc(Nc2nnc(-c3ccccc3)c3ccccc23)cc1
EC50 [1]: 1.06 µM (active) | EC50 [2]: 3.67 µM (active) | IC50 [3]: 5.9 µM (active) | IC50 [4]: 29.2 µM (active)

COc1ccc(C(=O)C2=C(O)C(=O)N(CCCN3CCOCC3)C2c2ccc(OC)cc2)cc1 (stereo not given)
AC50 [5]: > 30 µM (inactive)

CCOC(=O)COc1ccc2c(c1)C(=O)CC(C)(C)O2
IC50 [6]: 1.55 µM (active)

CN(C)/C=N/c1nc2nccc(-c3cccc(Cl)c3)n2n1
IC50 [6]: 1.15 µM (active)

COc1cccc(C(=O)NNC(=O)C(=O)Nc2ccc(C)c(Cl)c2)c1
IC50 [7]: 8.71 µM (active) | IC50 [8]: > 69.5 µM (inactive)

Cc1cccc(Nc2ccccc2C(=O)NCc2ccco2)c1C
Ki [9]: > 66.7 µM (inactive)

Cc1ccccc1NC(=NOCc1ccc(Cl)cc1Cl)c1nonc1N
IC50 [8]: > 69.5 µM (inactive)

Cc1cc(C)n(-c2nc(SCC(=O)O)c3c4c(sc3n2)COC(C)(C)C4)n1
IC50 [10]: > 59.6 µM (inactive) | IC50 [11]: > 59.6 µM (inactive) | EC50 [1]: 8.1 µM (active) | EC50 [12]: > 150 µM (not active) | IC50 [13]: > 59.6 µM (inactive) | EC50 [2]: > 150 µM (not active)

CC(C)(C)OC(=O)N1CCC[C@H]1c1nnc(SCc2cccc(Cl)c2)o1
AC50 [5]: > 30 µM (inactive)

COC(=O)[C@]12C[C@H](CC(=O)NCCCCc3ccccc3)C(=O)N(Cc3cccc4ccccc34)C1=C[C@H](C(C)C)O[C@@H]2C1CC1
IC50 [14]: > 69.5 µM (inactive) | IC50 [15]: > 7.72 µM (active)

N#C[C@H]1N[C@H](CO)[C@H]1c1ccc(C#CC2CCCCC2)cc1
AC50 [16]: 12.9 µM (active)

CCCCC1=CC2=CC(=O)C(C)(OC(=O)CCc3ccccc3)C(=O)C2=CO1 (stereo not given)
EC50 [17]: 41.6 µM (active) | EC50 [18]: > 150 µM (not active) | IC50 [3]: 8.81 µM (active) | IC50 [4]: 19.8 µM (active)

COc1ccc(S[C@@H](CCN2CC[C@H](C)CCC2=O)c2ccccc2)cc1
IC50 [14]: > 69.5 µM (inactive) | IC50 [15]: 19.3 µM (inactive)

CC1(C)CC(=O)c2cnc(NC(=O)c3ccco3)nc2C1
IC50 [19]: > 100 µM (not active)

CC(C)NC(=O)c1cccc(Br)c1
AC50 [5]: > 30 µM (inactive)

O=C(/C=C/c1ccc([N+](=O)[O-])cc1)c1ccccc(=O)c1O
AC50 [20]: 1.54 µM (active) | CC50 [21]: 1.87 µM (active) | IC50 [22]: 9.51 µM (active) | IC50 [7]: 8.35 µM (active) | IC50 [8]: 11.8 µM (inactive)

C[C@H]1CCCCO[C@@H](CN(C)S(=O)(=O)c2ccc(F)cc2)[C@@H](C)CN([C@@H](C)CO)C(=O)c2cc(N(C)C)ccc2O1
AC50 [16]: 2.54 µM (active)

Cc1ccccc1N=C(NOCc1ccc(Cl)cc1Cl)c1nonc1N
AC50 [23]: 3.53 µM (active) | IC50 [7]: 13.3 µM (inactive)

O=[N+]([O-])c1ccc(-c2ccccc2)c([As](=O)(O)O)c1
IC50 [10]: > 59.6 µM (inactive) | IC50 [11]: > 59.6 µM (inactive) | IC50 [13]: > 59.6 µM (inactive)
